In general, pEC50 refers to −log10 of the EC50, conventionally taken in molar units. The CC50 is the concentration giving 50% cytotoxicity. One may read the half-life as how long it takes for the measured level to halve. Lower therefore signals rapid decline.

This is an account of results in ChEMBL document CHEMBL5518164, “Membrane-permeable tenofovir-di- and monophosphate analogues” (Eur J Med Chem, 2024).

For data set [1], the system named is Human immunodeficiency virus. In words: Substrate activity at HIV reverse transcriptase assessed as n+1 band formation incubated for 30 mins in presence of primer/template mixture by primer extension assay based fluorescence analysis.
In data set [2] the target is T1, DNA polymerase subunit gamma-1 (Homo sapiens) (UniProt P54098).
T1 sequence (whole entry): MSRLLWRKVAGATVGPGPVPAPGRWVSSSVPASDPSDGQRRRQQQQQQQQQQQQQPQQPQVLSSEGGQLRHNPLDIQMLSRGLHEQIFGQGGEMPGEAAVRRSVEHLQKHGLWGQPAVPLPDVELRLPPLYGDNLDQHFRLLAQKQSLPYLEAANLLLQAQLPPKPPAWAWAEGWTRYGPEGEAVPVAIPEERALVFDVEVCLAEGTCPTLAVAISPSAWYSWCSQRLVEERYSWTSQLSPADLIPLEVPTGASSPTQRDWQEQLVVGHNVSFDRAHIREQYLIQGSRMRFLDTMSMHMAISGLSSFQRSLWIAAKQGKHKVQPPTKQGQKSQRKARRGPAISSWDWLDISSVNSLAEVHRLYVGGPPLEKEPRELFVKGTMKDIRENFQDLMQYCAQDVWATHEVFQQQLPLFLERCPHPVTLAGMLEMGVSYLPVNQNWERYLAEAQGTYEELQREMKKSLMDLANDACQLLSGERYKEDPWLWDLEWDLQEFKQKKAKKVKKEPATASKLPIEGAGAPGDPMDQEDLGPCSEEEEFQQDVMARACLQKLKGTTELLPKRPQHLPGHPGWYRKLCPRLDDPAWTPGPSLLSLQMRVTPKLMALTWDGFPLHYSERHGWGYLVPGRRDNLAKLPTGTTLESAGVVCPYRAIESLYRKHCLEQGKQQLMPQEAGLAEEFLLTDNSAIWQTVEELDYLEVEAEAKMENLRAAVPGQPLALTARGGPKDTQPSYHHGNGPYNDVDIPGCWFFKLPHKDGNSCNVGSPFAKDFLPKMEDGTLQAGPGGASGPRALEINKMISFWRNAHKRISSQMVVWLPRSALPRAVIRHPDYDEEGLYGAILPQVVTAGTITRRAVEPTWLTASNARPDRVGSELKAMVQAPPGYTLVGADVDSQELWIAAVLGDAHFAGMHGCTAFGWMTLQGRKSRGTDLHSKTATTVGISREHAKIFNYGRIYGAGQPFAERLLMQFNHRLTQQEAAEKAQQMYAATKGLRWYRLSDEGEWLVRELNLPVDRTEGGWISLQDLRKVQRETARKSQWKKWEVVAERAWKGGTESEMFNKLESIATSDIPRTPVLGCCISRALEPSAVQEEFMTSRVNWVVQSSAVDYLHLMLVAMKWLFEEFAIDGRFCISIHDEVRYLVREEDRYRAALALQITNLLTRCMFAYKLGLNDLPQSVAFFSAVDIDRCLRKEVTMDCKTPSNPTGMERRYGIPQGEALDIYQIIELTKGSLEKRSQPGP
In words: Substrate activity at human DNA polymerase gamma assessed as elongation of primer at 250 uM incubated for 120 mins in presence of primer/template mixture and dNTPs by primer extension assay based fluorescence analysis.

Data set [3] can be described thus: Prodrug conversion of the compound in phosphate buffer saline assessed as (R)-9-(2-(phosphonomethoxy)propyl)adenine formation by measuring half life at pH 7.3 by RP18-HPLC analysis. The data set is classed as ADME.
Data set [4] has as its system Human immunodeficiency virus 2. In words: Antiviral activity against HIV-2 ROD infected in wild type human CEM/0 cells assessed as inhibition of virus-induced giant cell formation incubated for 4 to 5 days by light microscopy. Conditions: Human immunodeficiency virus 2, ROD, CCRF-CEM. The data set is classed as functional, organism-based.
A short description of data set [5]: Selectivity index, ratio of CC50 for cytotoxicity against human CEM cells to EC50 for antiviral activity against HIV-2 ROD infected in thymidine kinase deficient human CEM cells. The data set is classed as toxicity, cell-based. As to conditions: read-out: Ratio CC50/EC50.
The subject of data set [6] is Human immunodeficiency virus. In words: Substrate activity at HIV reverse transcriptase assessed as full elongation of primer by measuring n+5 band formation incubated for 30 mins in presence of primer/template mixture and dNTPs by primer extension assay based fluorescence analysis.
Data set [7] in a line: Cytotoxicity against human CEM cells assessed as inhibition of cell proliferation. The data set is classed as toxicity, cell-based, CCRF-CEM.
In data set [8] the test system is Human immunodeficiency virus. In words: Inhibition of HIV reverse transcriptase assessed as inhibition of elongation of primer at 25000 uM incubated for 30 mins in presence of primer/template mixture and dNTPs by primer extension assay based fluorescence analysis.
In data set [9] the test system is Human immunodeficiency virus 2. In words: Antiviral activity against HIV-2 ROD infected in thymidine kinase deficient human CEM cells assessed as inhibition of virus-induced giant cell formation incubated for 4 to 5 days by light microscopy. The data set is classed as functional, organism-based. Conditions: Human immunodeficiency virus 2, ROD, CCRF-CEM.
Data set [10] in a line: Lipophilicity of the compound assessed as retention time by RP-HPLC analysis. The data set is classed as physicochemical.
Data set [11] in a line: Half life of the compound in human CEM/0 cell extracts by RP18-HPLC analysis. The data set is classed as ADME, CCRF-CEM.
For data set [12], the system named is Human immunodeficiency virus 1. In words: Antiviral activity against HIV-1 HE infected in wild type human CEM/0 cells assessed as inhibition of virus-induced giant cell formation incubated for 4 to 5 days by light microscopy. The data set is classed as functional, organism-based. Conditions: Human immunodeficiency virus 1, HE, CCRF-CEM.
Data set [13] deals with Human immunodeficiency virus 2. In words: Potency index, ratio of Tenofovir EC50 to test compound EC50 for antiviral activity against HIV-2 ROD infected in thymidine kinase deficient human CEM cells. The data set is classed as functional.
The subject of data set [14] is Human immunodeficiency virus. In words: Substrate activity at HIV reverse transcriptase assessed as n+1 band formation incubated for 30 mins in presence of primer/template mixture and 2.6 fold excess of dNTPs by primer extension assay based fluorescence analysis.
In data set [15] the test system is Human immunodeficiency virus. In words: Substrate activity at HIV reverse transcriptase assessed as n+1 band formation incubated for 30 mins in presence of primer/template mixture and dNTPs by primer extension assay based fluorescence analysis.
Data set [16] has as its target T1, DNA polymerase subunit gamma-1 (Homo sapiens). In words: Substrate activity at human DNA polymerase gamma assessed as elongation of primer at 250 uM incubated for 120 mins in presence of primer/template mixture by primer extension assay based fluorescence analysis.
Data set [17] has as its system Human immunodeficiency virus. In words: Inhibition of HIV reverse transcriptase assessed as inhibition of elongation of primer at 25000 uM incubated for 30 mins in presence of primer/template mixture and 250 uM dNTPs by primer extension assay based fluorescence analysis.
Data set [18] can be described thus: Prodrug conversion of the compound in phosphate buffer saline assessed as (R)-9-(2-(phosphonomethoxy)propyl)adenine formation by measuring half life in presence of pig liver esterase at pH 7.3 by RP18-HPLC analysis. The data set is classed as ADME, Sus scrofa.
A short description of data set [19]: Prodrug conversion of the compound in phosphate buffer saline assessed as Tenofovir monophosphate formation by measuring half life at pH 7.3 by RP18-HPLC analysis. The data set is classed as ADME.
Data set [20] in a line: Prodrug conversion of the compound in phosphate buffer saline assessed as Tenofovir monophosphate by measuring half life in presence of pig liver esterase at pH 7.3 by RP18-HPLC analysis. The data set is classed as ADME, Sus scrofa.
Data set [21] is described as follows: Half life of the compound in phosphate buffer saline at pH 7.3 by RP18-HPLC analysis. The data set is classed as ADME.
A short description of data set [22]: Drug hydrolysis in phosphate buffer saline incubated for 500 hrs at pH 7.3 by RP18-HPLC analysis. The data set is classed as physicochemical. As to conditions: read-out: Drug degradation.
Data set [23] can be described thus: Drug hydrolysis in phosphate buffer saline incubated for 600 hrs at pH 7.3 by RP18-HPLC analysis. The data set is classed as physicochemical. Conditions: read-out: Drug degradation.
In data set [24] the test system is Human immunodeficiency virus. In words: Substrate activity at HIV reverse transcriptase assessed as n+1 band formation at 97.6 to 12500 uM incubated for 30 mins in presence of primer/template mixture and 250 uM dNTPs by primer extension assay based fluorescence analysis. Conditions: dose 97.6-12500 µM.
The test system of data set [25] is Human immunodeficiency virus. In words: Substrate activity at HIV reverse transcriptase assessed as elongation of primer at 97.6 to 12500 uM incubated for 30 mins in presence of primer/template mixture and dNTPs by primer extension assay based fluorescence analysis. Conditions: dose 97.6-12500 µM.
In data set [26] the test system is Human immunodeficiency virus. In words: Substrate activity at HIV reverse transcriptase assessed as elongation of primer at 97.6 to 12500 uM incubated for 30 mins in presence of primer/template mixture and 250 uM dNTPs by primer extension assay based fluorescence analysis. Conditions: dose 97.6-12500 µM.
For data set [27], the system named is Human immunodeficiency virus. In words: Substrate activity at HIV reverse transcriptase assessed as n+1 band formation at 25000 uM incubated for 30 mins in presence of primer/template mixture and dNTPs by primer extension assay based fluorescence analysis.
The subject of data set [28] is Human immunodeficiency virus 2. In words: Potency index, ratio of Tenofovir EC50 to test compound EC50 for antiviral activity against HIV-2 ROD infected in wild type human CEM/0 cells. The data set is classed as functional.
For data set [29], the system named is Human immunodeficiency virus 1. In words: Potency index, ratio of Tenofovir EC50 to test compound EC50 for antiviral activity against HIV-1 HE infected in wild type human CEM/0 cells. The data set is classed as functional.

Molecules are shown by their SMILES. pEC50: −log10 of the molar value. The source made the active and inactive calls. No cut-off for these calls is given here.

For `CCCCCCCCCCCCCCCCCCOP(=O)(O)OP(=O)(O)OP(=O)(O)CO[C@H](C)Cn1cnc2c(N)ncnc21`, the outcome in data set [1], in data set [2], in data set [6] and in [14] was Active. For the same compound, the t1/2 in [3] is greater than 200 h; in data set [18] it was greater than 50 h. The negative logarithm of the EC50 (pEC50) was 6.15 in data set [4], 7.57 in data set [9] and 6.44 in data set [12]. For the same compound, the selectivity ratio in data set [5] was greater than 3700. Further, the half-maximal cytotoxic concentration (CC50) in [7] was greater than 100 µM. In addition, the inhibition result in data set [8] and in [17] was “Active” throughout. Besides, in data set [10], the Retention_time is listed as 14.2 min. This compound also came in with a half-life in [11] greater than 8 h. Also, in data set [13], the “Ratio EC50” value is given as 32. Also, the result in [15] and in data set [16] was inactive.
For the compound `CCCCCCCCC(=O)Oc1ccc(COOP(=O)(O)OP(=O)(O)OP(=O)(O)CO[C@H](C)Cn2cnc3c(N)ncnc32)cc1`, the t1/2 was 9 h in data set [3], greater than 200 h in data set [19], 3.6 s in data set [20] and 0.00267 h in [18]. Moreover, the values for the negative-log EC50 (pEC50) in [4], in data set [9] and in data set [12] were 6.46, 6.25 and 5.95, respectively. Also, the selectivity ratio in [5] came out at 87. In addition, in [7], the half-maximal cytotoxic concentration (CC50) stood at 48.9 µM. Besides, the Retention_time in data set [10] came out at 16.4 min. Besides, the half-life in data set [11] was 0.97 h.
As to `CCCCCCCCCCCCCCCCCCP(=O)(OCCCCCCCC)OP(=O)(O)OP(=O)(O)CO[C@H](C)Cn1cnc2c(N)ncnc21` (stereo not given in full), the figures for the negative-log EC50 (pEC50) in data set [4], in [9] and in data set [12] were 6.85, 7.26 and 6.19, respectively. Further, the selectivity ratio in [5] was 882. Further, the half-life in data set [21] is greater than 500 h; in data set [11] it was greater than 8 h. Moreover, in [7], the CC50 is 48.5 µM. Besides, the degraded at 500 h in data set [22] was 36%. In data set [10], the Retention_time is given as 16.3 min. Besides, the degraded at 600 h in [23] worked out at 43%.
Consider `CCCCCCCCCCCOP(=O)(O)OP(=O)(O)OP(=O)(O)CO[C@H](C)Cn1cnc2c(N)ncnc21`, for which the outcome in data set [1], in data set [2], in data set [6] and in data set [14] was Active. The pEC50 in data set [4] was 5.26; in data set [9], 5.34; in [12], 5.28. For the same compound, in data set [5], the selectivity ratio is greater than 21. Besides, the CC50 in [7] is greater than 100 µM. Besides, the inhibition result in [8] and in data set [17] was “Active” each time. For the same compound, the Retention_time in data set [10] is 12.5 min. The outcome in data set [15] and in data set [16] was inactive.
Turning to `C[C@H](Cn1cnc2c(N)ncnc21)OCP(=O)(O)OP(=O)(O)OP(=O)(O)O`, the result in data set [24], in [1], in data set [2], in data set [6], in data set [25] and in data set [26] was Active. Besides, in [15], the outcome was Active. Besides, the inhibition result in data set [8] and in data set [17] was “Active” throughout. The result in data set [27] and in data set [16] was inactive.
In the case of `CCCCCCCCCCCCCCCCCCOP(=O)(OCc1ccc(OC(=O)CCCC)cc1)OP(=O)(O)OP(=O)(O)CO[C@H](C)Cn1cnc2c(N)ncnc21` (stereo not given in full), the t1/2 worked out at 51 h in [3] and 0.683 h in data set [18]. In addition, the negative-log EC50 (pEC50) is 7.12 in data set [4], 7.24 in data set [9] and 6.82 in data set [12]. The selectivity ratio in data set [5] worked out at 986. The cytotoxic concentration (CC50) in data set [7] stood at 57.2 µM. Also, in [10], the Retention_time was found to be 17.5 min. For the same compound, in data set [11], the half-life is 2.1 h. For the same compound, the “Ratio EC50” value in data set [28] was 23; in data set [29], 13.
